Laboratory results taken from PubChem BioAssay (NCI).
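Interpolation was linear, between the two tested concentrations surrounding the appropriate level; five concentrations were tested over 48 hours in 96-well plates. At the TGI there is no net growth.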

Assays:
Assay in all cases: growth of human tumour cells (NCI), 48 h
[1] = test system: 786-0 renal
[2] = test system: A498 renal
[3] = test system: ACHN renal
[4] = test system: BT-549 breast
[5] = test system: CAKI-1 renal
[6] = test system: COLO 205 colon
[7] = test system: DU-145 prostate
[8] = test system: EKVX NSCLC
[9] = test system: HCC-2998 colon
[10] = test system: HCT-116 colon
[11] = test system: HCT-15 colon
[12] = test system: HL-60(TB) leukemia
[13] = test system: HOP-62 NSCLC
[14] = test system: HS 578T breast
[15] = test system: HT29 colon
[16] = test system: IGROV1 ovarian
[17] = test system: K-562 leukemia
[18] = test system: KM12 colon
[19] = test system: LOX IMVI melanoma
[20] = test system: MALME-3M melanoma
[21] = test system: MCF7 breast
[22] = test system: MDA-MB-231 breast
[23] = test system: MDA-MB-435
[24] = test system: MDA-N
[25] = test system: MOLT-4 leukemia
[26] = test system: NCI-H226 lung
[27] = test system: NCI-H23 lung
[28] = test system: NCI-H460 lung
[29] = test system: NCI-H522 lung
[30] = test system: NCI/ADR-RES ovarian
[31] = test system: OVCAR-3 ovarian
[32] = test system: OVCAR-4 ovarian
[33] = test system: OVCAR-5 ovarian
[34] = test system: OVCAR-8 ovarian
[35] = test system: PC-3 prostate
[36] = test system: RPMI-8226 leukemia
[37] = test system: RXF 393 renal
[38] = test system: SF-268 CNS
[39] = test system: SF-295 CNS
[40] = test system: SF-539 CNS
[41] = test system: SK-MEL-2 melanoma
[42] = test system: SK-MEL-28 melanoma
[43] = test system: SK-MEL-5 melanoma
[44] = test system: SN12C renal
[45] = test system: SNB-19 CNS
[46] = test system: SNB-75 CNS
[47] = test system: SR leukemia
[48] = test system: SW-620 colon
[49] = test system: TK-10 renal
[50] = test system: U251 CNS
[51] = test system: UACC-257 melanoma
[52] = test system: UACC-62 melanoma
[53] = test system: UO-31 renal
[54] = test system: A549 NSCLC
[55] = test system: CCRF-CEM leukemia
[56] = test system: HOP-92 NSCLC
[57] = test system: M14 melanoma
[58] = test system: SK-OV-3 ovarian
[59] = test system: T-47D breast

N#Cc1nsnc1-c1nc(-c2nsnc2C#N)nc(-c2nsnc2C#N)n1
TGI [1]: > 100 µM | TGI [2]: > 100 µM | TGI [3]: > 100 µM | TGI [4]: > 100 µM | TGI [5]: > 100 µM | TGI [6]: > 100 µM | TGI [7]: > 100 µM | TGI [8]: > 100 µM | TGI [9]: > 100 µM | TGI [10]: > 100 µM | TGI [11]: > 100 µM | TGI [12]: > 100 µM | TGI [13]: > 100 µM | TGI [14]: 94 µM | TGI [15]: > 100 µM | TGI [16]: > 100 µM | TGI [17]: > 100 µM | TGI [18]: > 100 µM | TGI [19]: > 100 µM | TGI [20]: > 100 µM | TGI [21]: > 100 µM | TGI [22]: > 100 µM | TGI [23]: > 100 µM | TGI [24]: > 100 µM | TGI [25]: > 100 µM | TGI [26]: > 100 µM | TGI [27]: > 100 µM | TGI [28]: > 100 µM | TGI [29]: > 100 µM | TGI [30]: > 100 µM | TGI [31]: > 100 µM | TGI [32]: > 100 µM | TGI [33]: > 100 µM | TGI [34]: > 100 µM | TGI [35]: > 100 µM | TGI [36]: > 100 µM | TGI [37]: > 100 µM | TGI [38]: > 100 µM | TGI [39]: > 100 µM | TGI [40]: > 100 µM | TGI [41]: > 100 µM | TGI [42]: > 100 µM | TGI [43]: > 100 µM | TGI [44]: > 100 µM | TGI [45]: > 100 µM | TGI [46]: > 100 µM | TGI [47]: > 100 µM | TGI [48]: > 100 µM | TGI [49]: > 100 µM | TGI [50]: > 100 µM | TGI [51]: > 100 µM | TGI [52]: > 100 µM | TGI [53]: > 100 µM

O=C1NC(N/N=C/C(O)C(O)C(O)C(O)CO)=N/C1=C\c1cccs1 (stereo not given)
TGI [1]: > 100 µM | TGI [2]: > 100 µM | TGI [54]: > 100 µM | TGI [3]: > 100 µM | TGI [4]: > 100 µM | TGI [5]: > 100 µM | TGI [55]: > 100 µM | TGI [6]: > 100 µM | TGI [7]: > 100 µM | TGI [8]: > 100 µM | TGI [9]: > 100 µM | TGI [10]: > 100 µM | TGI [11]: > 100 µM | TGI [12]: > 100 µM | TGI [13]: > 100 µM | TGI [56]: > 100 µM | TGI [14]: > 100 µM | TGI [15]: > 100 µM | TGI [16]: > 100 µM | TGI [17]: > 100 µM | TGI [18]: > 100 µM | TGI [19]: > 100 µM | TGI [57]: > 100 µM | TGI [20]: > 100 µM | TGI [21]: > 100 µM | TGI [22]: > 100 µM | TGI [23]: > 100 µM | TGI [24]: > 100 µM | TGI [25]: > 100 µM | TGI [26]: > 100 µM | TGI [27]: > 100 µM | TGI [28]: > 100 µM | TGI [29]: > 100 µM | TGI [30]: > 100 µM | TGI [31]: > 100 µM | TGI [32]: > 100 µM | TGI [33]: > 100 µM | TGI [34]: > 100 µM | TGI [35]: > 100 µM | TGI [36]: > 100 µM | TGI [37]: > 100 µM | TGI [38]: > 100 µM | TGI [39]: > 100 µM | TGI [40]: > 100 µM | TGI [41]: > 100 µM | TGI [42]: > 100 µM | TGI [43]: > 100 µM | TGI [58]: > 100 µM | TGI [44]: > 100 µM | TGI [45]: > 100 µM | TGI [46]: > 100 µM | TGI [48]: > 100 µM | TGI [59]: > 100 µM | TGI [49]: > 100 µM | TGI [50]: > 100 µM | TGI [51]: > 100 µM | TGI [52]: > 100 µM
